Experimental data taken from patent US9957214B2, “Multifunctional radical quenchers” (ARIZONA BOARD OF REGENTS ON BEHALF OF ARIZONA STATE …, priority 2012, dated 2018).
Entries after “also recorded” stand apart in the source; their conditions may differ.

Tests used:
Assay type in all cases: cell-based
[1] = tested on: FRDA lymphocytes; assay: Preservation of mitochondrial membrane potential (TMRM flow cytometry) in DEM-treated FRDA lymphocytes
Method: FIG. 3. Effect of nitrogen-containing 1,4-benzoquinone derivatives on mitochondrial membrane potential of cultured FRDA cells. Representative flow cytometric two dimensional color density dot plot analyses of mitochondrial membrane potential Δψm in FRDA lymphocytes stained with TMRM and analyzed using the FL2-H channel as described in Experimental Section. The cells were washed twice in phosphate buffered saline, and suspended in phosphate buffered saline containing 20 mM glucose. The percentage of cells with intact Δψm is indicated in the top right quadrant of captions. In each analysis, 10,000 events were recorded. Data are expressed as means±SEM of three independent experiments run in duplicate.
Mitochondrial membrane potential was measured using two different fluorescent dyes, TMRM and JC-1. Δψm was determined as previously described by staining FRDA lymphocyte cells with TMRM (Molecular Probes, Eugene, Oreg.) and analyzing fluorescence emission by flow cytometry in detection channel 2 (FL2-H) (Khdour et al. (2011) Pharmaceut. Res. 28, 2896-2909). Briefly, FRDA lymphocytes were pre-treated with or without the test compounds for 16 h. The cells were treated with 5 mM DEM for 140 min, collected by centrifugation at 300×g for 3 min and then washed twice with phosphate buffered saline. The cells were resuspended in PBS containing […] and incubated at 37° C. in the dark for 15 min with 250 nM TMRM. Cells were collected by centrifugation at 300×g for 3 min and were then washed with phosphate buffered saline. The samples were analyzed immediately by flow cytometry using a 488 nm excitation laser and the FL2-H channel. The results obtained were verified in three independent experiments. […] In each analysis, 10,000 events were recorded. […] The following day, cells were treated with tested compounds and incubated for an additional 12 h before treatment with 1 mM BSO. Δψm was assessed after 24 h using JC-1 Mitochondrial Membrane Potential Detection Kit (Biotium, Inc) following the manufacturer instruction. Glass cover slips were rinsed with phosphate-buffered saline and mounted onto slides, and images were recorded and analyzed with a Zeiss AxioCam MRm and AxioVision 3.1 software (Carl Zeiss Goettingen, Germany) on a Zeiss Axiovert 200 M inverted microscope, equipped with a 40× oil immersion objective.
The ability of the test compounds to preserve mitochondrial membrane potential under conditions of oxidative stress was studied. […] Changes in mitochondrial membrane potential (Δψm) were measured using two different fluorescent dyes, tetramethylrhodamine methyl ester (TMRM) and 5,5′,6,6′-tetrachloro-1,1′,3,3′-tetraethylbenzimidazolocarbocyanine iodide (JC-1). […] The fluorescence signal of TMRM can be directly co-related to Δψm across the inner mitochondrial membrane. […]

[2] = tested on: CEM leukemia cells; assay: Suppression of ROS production (DCFH-DA flow cytometry) in DEM-treated CEM leukemia cells; settings: CEM leukemia cells pretreated with DEM, read-out: Scavenging activity (%), suppression of ROS production
Method: FIG. 1. Flow cytometric analysis of CEM leukemia lymphocytes (gray bars) and FRDA lymphocytes (black bars) stained with dichlorodihydrofluorescein diacetate (DCFH-DA) for 20 min, following pretreatment with the test compounds at 5 μM concentration for 16 h, and subsequent treatment with diethyl maleate (DEM) for 60 or 80 min to induce the production of ROS in CEM and FRDA lymphocytes, respectively. Data shown represent the mean±SEM of two different experiments run as duplicates.
Intracellular ROS production was measured in FRDA lymphocyte cells (GM15850, Coriell Cell Repositories, Camden, N.J.) using the oxidant sensitive fluorescent probe 2,7-dichlorodihydrofluorescein diacetate (DCFH-DA) (Molecular Probes) as described previously (Khdour et al. (2011) Pharm. Res. 28, 2896-2909). One mL of FRDA lymphocyte cells or leukemic CEM cells (5×10^5 cells) were plated in a 24-well plate, treated with the test compounds and incubated at 37° C. for 16 h in a humidified atmosphere containing 5% CO2 in air. Cells were treated with 5 mM diethyl maleate (DEM) for 80 min or 60 min respectively, collected by centrifugation at 300×g for 3 min and then washed with phosphate buffered saline (PBS) (Life Technologies). Cells were resuspended in PBS containing 20 mM glucose and incubated at 37° C. in the dark for […] with 10 μM DCFH-DA. Cells were collected by centrifugation at 300×g for 3 min and then washed with PBS. The samples were analyzed immediately by flow cytometry (C6 Accuri, BD Biosciences, San Jose, Calif.), using a 488 nm excitation laser and the FL1-H channel 530±15 nm emission filter. The generation of ROS, mainly peroxides, was detected as a result of the oxidation of DCFH. In each analysis, 10,000 events were recorded after cell debris was electronically gated out. Results obtained were verified by running duplicates and repeating experiments in three independent runs. Results were expressed as percentage of ROS scavenging activity.
The ability of the synthesized analogues to quench ROS and lipid peroxidation was evaluated in FRDA lymphocytes or leukemic CEM cells. These cells were placed under oxidative stress by depleting them of glutathione (GSH) using diethyl maleate (DEM). Depletion of glutathione by treatment FRDA lymphocytes or leukemic CEM cells with DEM has been used to induce oxidative stress in cellular systems by generation of ROS. Intracellular ROS production was measured using the oxidant sensitive fluorescent probe 2,7-dichlorodihydrofluorescein diacetate (DCFH-DA) (Molecular Probes).

[3] = tested on: FRDA lymphocytes; assay: Suppression of ROS production (DCFH-DA flow cytometry) in DEM-treated FRDA lymphocytes; settings: FRDA lymphocytes or leukemic CEM cells depleted of glutathione with DEM; compared with natural product 8
Method: FIG. 2. Representative flow cytometric analysis of ROS production in FRDA lymphocytes. Following pretreatment with the indicated compounds (5 and 10 μM) for 16 h, the cells were treated with 5 mM diethyl maleate (DEM) for 80 min to deplete glutathione. The cells were washed in phosphate-buffered saline and suspended in phosphate-buffered saline containing 20 mM glucose. Cells were loaded with 10 μM dichlorodihydrofluorescein diacetate (DCFH-DA) for 20 min, and the green fluorescence (DCF) was measured by flow cytometry (C6 Accuri, BD Biosciences, San Jose, Calif.), using a 488 nm excitation laser and the FL1-H channel 530±15 nm emission filter. […] A total of 10,000 events was recorded for each sample and analyzed (C6 Accuri software, BD Biosciences). […] Data are expressed as the mean±SEM (n=3).
Intracellular ROS production was measured in FRDA lymphocyte cells (GM15850, Coriell Cell Repositories, Camden, N.J.) using the oxidant sensitive fluorescent probe 2,7-dichlorodihydrofluorescein diacetate (DCFH-DA) (Molecular Probes) as described previously (Khdour et al. (2011) Pharm. Res. 28, 2896-2909). […] The samples were analyzed immediately by flow cytometry (C6 Accuri, BD Biosciences, San Jose, Calif.), using a 488 nm excitation laser and the FL1-H channel 530±15 nm emission filter. The generation of ROS, mainly peroxides, was detected as a result of the oxidation of DCFH. […]

Compound	Preservation of mitochondrial membrane potential Δψm (in words) [1]	inhibition at 5 µM [2] [%]	Suppression of ROS (in words) [3]
CCCCCCCCCCCCCC1=C(OC)C(=O)C=C(NCCCC(=O)OCCCCCC)C1=O [Compound 18, Hexyl 4-(4-methoxy-3,6-dioxo-5-tridecylcyclohexa-1,4-dienylamino)butanoate]	prevented the loss of Δψm		
CCCCCCCCCCCCCC1=C(OC)C(=O)C(C)=C(NCCCC(=O)OCCCC)C1=O [Compound 46, Butyl 4-(4-methoxy-2-methyl-3,6-dioxo-5-tridecylcyclohexa-1,4-dienylamino)butanoate]		50 ± 5	
COC1=C2CCCCCCCCCCCCCCCNC(=CC1=O)C2=O [Compound 40]	prevented the loss of Δψm; also recorded: able to prevent oxidative-stress induced collapse of Δψm		very effective in suppressing ROS
CCCCCCCCCCCCCC1=C(NCCCC(=O)OCCCCCC)C(=O)C(C)=C(NCCCC(=O)OCCCCCC)C1=O [Compound 50, 2,5-bis(hexyl 4-aminobutanoate)-3-methyl-6-tridecylcyclohexa-2,5-diene-1,4-dione]		14 ± 1	
CCCCCCCCCCCCCC1=C(OC)C(=O)C=C(NCCCC(=O)OC(C)(C)C)C1=O [Compound 7, tert-butyl 4-(4-methoxy-3,6-dioxo-5-tridecylcyclohexa-1,4-dienylamino)butanoate]	preserved mitochondrial membrane potential; also recorded: able to prevent oxidative-stress induced collapse of Δψm		very effective in suppressing ROS
CCCCCCCCCCCCCC1=C(OC)C(=O)C(C)=C(NCCCC(=O)OCCCCCC)C1=O [Compound 49, Hexyl 4-(4-methoxy-2-methyl-3,6-dioxo-5-tridecylcyclohexa-1,4-dienylamino)butanoate]		16 ± 8	
CCCCCCCCCCCCCC1=C(OC)C(=O)C(C)=C(NCCCC(=O)OC(C)(C)C)C1=O [Compound 43, tert-butyl 4-(4-methoxy-2-methyl-3,6-dioxo-5-tridecylcyclohexa-1,4-dienylamino)butanoate]		35 ± 6	
